Data reported in paper PMC8261786 (Chemical Science, 2021).

Legend:
SDS-PAGE = type: physicochemical; details: 25 μM amyloid peptide alone; for size of monomers and oligomers (SDS-PAGE): 1–2 h; for size of large aggregates (SDS-PAGE): 24 h
SH-SY5Y cells [1] = experiment: MTT cell viability, SH-SY5Y; type: cell-based, human; details: 25 μM amyloid, 24 h, n = 3
SH-SY5Y cells [2] = experiment: LDH membrane leakage, SH-SY5Y; type: cell-based, human; details: 25 μM amyloid, 24 h, n = 3
S. epidermidis = experiment: Bacterial growth assay, S. epidermidis; type: cell-based, Staphylococcus epidermidis (ATCC 14990); details: amyloid peptides 25 μM
[3] = system: E. coli, P. aeruginosa, S. aureus and S. epidermidis; experiment: Bacterial growth assay, four strains together; type: cell-based; details: hCT 25 μM, growth profiles
RIN-5fm cells [4] = experiment: MTT cell viability, RIN-5fm; type: cell-based, rat; details: 25 μM hIAPP, 24 h, n = 3
RIN-5fm cells [5] = experiment: LDH membrane leakage, RIN-5fm; type: cell-based, rat; details: 25 μM hIAPP, 24 h, n = 3

size of monomers and oligomers (SDS-PAGE) (SDS-PAGE)	size of large aggregates (SDS-PAGE) (SDS-PAGE) [kDa]	membrane leakage (LDH activity), amyloid alone (SH-SY5Y cells [2]) [%]	membrane leakage (LDH activity), amyloid alone (RIN-5fm cells [5]) [%]	Compound	cell viability, amyloid alone (SH-SY5Y cells [1]) [%]	susceptibility of S. epidermidis (S. epidermidis)	growth inhibition [3]	cell viability, amyloid alone (RIN-5fm cells [4]) [%]
5–15 kDa	> 25	26		CC[C@H](C)[C@H](NC(=O)[C@H](C)NC(=O)[C@@H](NC(=O)[C@H](CCC(N)=O)NC(=O)[C@@H]1CCCN1C(=O)[C@H](Cc1ccccc1)NC(=O)[C@@H](NC(=O)[C@H](Cc1c[nH]cn1)NC(=O)[C@H](Cc1ccccc1)NC(=O)[C@H](CCCCN)NC(=O)[C@H](CC(N)=O)NC(=O)[C@H](Cc1ccccc1)NC(=O)[C@H](CC(=O)O)NC(=O)[C@H](CCC(N)=O)NC(=O)[C@@H](NC(=O)[C@H](Cc1ccc(O)cc1)NC(=O)[C@@H](NC(=O)CNC(=O)[C@H](CC(C)C)NC(=O)[C@H](CCSC)NC(=O)[C@@H]1CSSC[C@H](N)C(=O)NCC(=O)N[C@@H](CC(N)=O)C(=O)N[C@@H](CC(C)C)C(=O)N[C@@H](CO)C(=O)N[C@@H]([C@@H](C)O)C(=O)N1)[C@@H](C)O)[C@@H](C)O)[C@@H](C)O)[C@@H](C)O)C(=O)NCC(=O)N[C@H](C(=O)NCC(=O)N[C@@H](C)C(=O)N1CCC[C@H]1C(N)=O)C(C)C [hCT, human calcitonin 1–32]	69	not susceptible	only inhibited the growth of P. aeruginosa	
5–15 kDa	> 25		36	CC[C@H](C)[C@H](NC(=O)[C@H](C)NC(=O)CNC(=O)[C@H](Cc1ccccc1)NC(=O)[C@H](CC(N)=O)NC(=O)[C@H](CC(N)=O)NC(=O)[C@H](CO)NC(=O)[C@H](CO)NC(=O)[C@H](Cc1c[nH]cn1)NC(=O)[C@@H](NC(=O)[C@H](CC(C)C)NC(=O)[C@H](Cc1ccccc1)NC(=O)[C@H](CC(N)=O)NC(=O)[C@H](C)NC(=O)[C@H](CC(C)C)NC(=O)[C@H](CCCNC(=N)N)NC(=O)[C@H](CCC(N)=O)NC(=O)[C@@H](NC(=O)[C@H](C)NC(=O)[C@@H]1CSSC[C@H](NC(=O)[C@@H](N)CCCCN)C(=O)N[C@@H](CC(N)=O)C(=O)N[C@@H]([C@@H](C)O)C(=O)N[C@@H](C)C(=O)N[C@@H]([C@@H](C)O)C(=O)N1)[C@@H](C)O)C(C)C)C(=O)N[C@@H](CC(C)C)C(=O)N[C@@H](CO)C(=O)N[C@@H](CO)C(=O)N[C@H](C(=O)N[C@@H](CC(N)=O)C(=O)N[C@H](C(=O)NCC(=O)N[C@@H](CO)C(=O)N[C@@H](CC(N)=O)C(=O)N[C@H](C(=O)N[C@@H](Cc1ccc(O)cc1)C(N)=O)[C@@H](C)O)C(C)C)[C@@H](C)O [hIAPP, human islet amyloid polypeptide 1–37]		not susceptible		58
